According to patent publication US5380834A, “Immuno-suppressive agent” (Ishihara Sangyo Kaisha Ltd., priority 1992, dated 1995):
≈ marks a conversion by molar mass, not a printed value.

How the values were obtained:
[1] = tested on: murine bone mallow cells; assay: Effects on the murine bone mallow cells (proliferation, 3H-TdR uptake); type: cell-based, BALB/c mouse; conditions: Mus musculus, bone marrow cells; 20% L929 culture supernatant, 48 hours, 3H-TdR uptake; Tables 12-15; read-out: IC50 value, c (murine bone mallow cells)
[2] = tested on: murine thymocytes; assay: Effects on the mitogenic response by murine thymocytes (Con A stimulation, 3H-TdR uptake); type: cell-based, BALB/c murine; conditions: Mus musculus, Thymocyte; BALB/c thymocytes, Con A 5 μg/ml, 48 hours, 3H-TdR uptake; read-out: IC50 value, a (mitogenic response of murine thymocytes)
[3] = tested on: IgM antibody production from murine spleen B cells; assay: Effects on the IgM antibody production from murine spleen cells (LPS + IL4); type: cell-based, BALB/c mouse; conditions: Mus musculus, B-cell, 168 h; spleen B cells, LPS 10 μg/ml, IL4 100 U/ml, 7 days, enzyme-immunoassay; read-out: IC50 value, IgM antibody production

IC50 [2]	IC50 [3]	SMILES	IC50 [1]
190 µg/mL (≈ 855 µM)	100 µg/mL	O=C(O[C@H]1C=C[C@H]2CO[C@@H]1O2)c1ccco1 [Compound 17, 1,6-anhydro-3,4-dideoxy-2-O-(2-furancarbonyl)-β-D-threo-hex-3-enopyranose]	510 µg/mL (≈ 2300 µM)
35 µg/mL (≈ 230 µM)	> 1000 µg/mL	C#C[C@]1(O)C=C[C@H]2CO[C@@H]1O2 [Compound 29]	> 1000 µg/mL
15 µg/mL (≈ 117 µM)	25 µg/mL	O[C@H]1C=C[C@H]2CO[C@@H]1O2 [Compound 1, 1,6-anhydro-3,4-dideoxy-β-D-threo-hex-3-enopyranose]	69 µg/mL (≈ 539 µM)
